The source of these data is ChEMBL document CHEMBL1150482, “Synthesis of the 4,5 diphosphonate analog of D,L-myo-inositol 4,5-diphosphate” (Bioorg Med Chem Lett, 1993).

The structures appear in SMILES notation.

This assay can be described thus: Compound was tested for calcium mobilization using rat basophilic leukemia cells at concentration of 5 mM. Particulars: RBL-1. In kind it is functional, cell-based. (In general: A change in cytosolic calcium serves as a functional read-out for many receptors and channels.)

Usually EC50 stands for the concentration that produces a half-maximal response. For `O=P(O)(O)C[C@@H]1[C@@H](O)[C@H](O)[C@H](O)[C@H](O)[C@H]1CP(=O)(O)O`, the EC50 worked out at 70 µM.
